Usually IC50 stands for the midpoint of a concentration-inhibition curve. The EC50 is the concentration that produces a half-maximal response. The AC50 is the midpoint of the concentration-response curve, whichever way the signal moves.

From ChEMBL document CHEMBL1201862, “PubChem BioAssay data set” (2004) come the findings set out here.

Activity calls are given as the source filed them.

Test [1] addresses T1, Estrogen receptor (Homo sapiens, UniProt P03372).
T1 sequence (P03372 whole entry): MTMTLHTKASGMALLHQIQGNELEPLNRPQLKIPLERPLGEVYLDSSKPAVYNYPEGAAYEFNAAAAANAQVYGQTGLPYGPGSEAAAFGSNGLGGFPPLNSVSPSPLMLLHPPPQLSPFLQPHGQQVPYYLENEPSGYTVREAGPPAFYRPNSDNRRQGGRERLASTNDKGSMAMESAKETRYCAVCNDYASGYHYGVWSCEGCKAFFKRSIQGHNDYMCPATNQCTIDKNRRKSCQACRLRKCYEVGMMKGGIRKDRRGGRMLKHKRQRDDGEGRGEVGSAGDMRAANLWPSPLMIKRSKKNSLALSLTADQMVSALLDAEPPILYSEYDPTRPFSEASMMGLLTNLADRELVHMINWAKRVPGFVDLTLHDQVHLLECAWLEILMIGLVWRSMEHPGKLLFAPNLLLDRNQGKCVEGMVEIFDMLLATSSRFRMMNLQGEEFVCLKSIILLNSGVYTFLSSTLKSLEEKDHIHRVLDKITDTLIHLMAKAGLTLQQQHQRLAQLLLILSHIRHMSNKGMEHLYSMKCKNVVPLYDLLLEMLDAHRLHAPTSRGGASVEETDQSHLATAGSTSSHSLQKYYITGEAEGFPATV

The target of test [2] is T2, Estrogen receptor beta (Homo sapiens, UniProt Q92731).
Test [3] addresses T2, Estrogen receptor beta. The test is described as follows: ERβ–SRC-3 coactivator interaction inhibitors, confirmation, orthogonal assay, biochemical, ELISA, streptavidin-HRP readout (AID 1060). For orientation: An ELISA detects its analyte on a solid surface through an enzyme-linked reagent.
For test [4], the target named is Troponin, cardiac muscle (Homo sapiens, UniProt P19429+P45379+P63316). The test is described as follows: Fluorescence-based biochemical high throughput dose response assay for activators of the calcium sensitivity of cardiac Regulated Thin Filaments (RTF). [Related pubchem assays (depositor defined):AID493008, AID493018, AID504382, AID504383]. It counts as protein-complex assay.

Test [5] has as its target T3, Acyl-homoserine lactone acylase PvdQ (Pseudomonas aeruginosa (strain LESB58), UniProt Q9I194).
T3 sequence (Q9I194 whole entry): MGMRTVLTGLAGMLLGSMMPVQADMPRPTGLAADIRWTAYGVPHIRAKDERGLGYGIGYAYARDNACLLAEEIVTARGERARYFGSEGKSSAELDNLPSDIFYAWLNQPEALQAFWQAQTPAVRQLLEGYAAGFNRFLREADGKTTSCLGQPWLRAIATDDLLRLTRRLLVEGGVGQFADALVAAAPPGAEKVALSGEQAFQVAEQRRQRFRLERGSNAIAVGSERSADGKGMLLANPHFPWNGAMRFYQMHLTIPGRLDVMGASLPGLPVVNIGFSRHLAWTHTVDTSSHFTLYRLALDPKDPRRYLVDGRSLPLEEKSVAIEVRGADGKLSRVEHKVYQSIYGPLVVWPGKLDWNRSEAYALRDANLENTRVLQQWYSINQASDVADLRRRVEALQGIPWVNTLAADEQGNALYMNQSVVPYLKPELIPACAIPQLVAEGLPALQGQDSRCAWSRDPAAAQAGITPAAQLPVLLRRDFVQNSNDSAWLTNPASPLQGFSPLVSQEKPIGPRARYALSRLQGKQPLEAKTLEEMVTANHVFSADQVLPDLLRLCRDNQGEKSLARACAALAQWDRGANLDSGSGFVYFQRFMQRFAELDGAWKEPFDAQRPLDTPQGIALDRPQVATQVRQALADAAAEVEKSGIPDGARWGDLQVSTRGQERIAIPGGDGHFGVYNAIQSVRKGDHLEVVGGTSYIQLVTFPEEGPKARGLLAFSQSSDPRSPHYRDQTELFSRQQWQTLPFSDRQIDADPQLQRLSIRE
Description: P. aeruginosa PvdQ acylase inhibitors, dose response, biochemical, fluorescence, plate reader and imaging, cherry-picks (AID 493231).

Test [6] concerns the target DNA dC->dU-editing enzyme APOBEC-3A (Homo sapiens, UniProt P31941). Description: APOBEC3A DNA deaminase inhibitors, dose response, biochemical (AID 504722). Format: functional.
Test [7] has as its target DNA dC->dU-editing enzyme APOBEC-3G (Homo sapiens, UniProt Q9HC16). Description: Dose Response confirmation of small molecule APOBEC3G DNA Deaminase Inhibitors via a fluorescence-based single-stranded DNA deaminase assay. [Related pubchem assays (depositor defined):AID493012, AID493028]. Format: functional.
Test [8] deals with FAD-linked sulfhydryl oxidase ALR (Homo sapiens, UniProt P55789). The test is described as follows: inhibitors of human ALR sulfhydryl oxidase, dose response, biochemical, H2O2 detection, luminescence, cherry-pick (AID 493248).
Test [9] deals with T4, High affinity choline transporter 1 (Homo sapiens, UniProt Q9GZV3).
T4 sequence (Q9GZV3 whole entry): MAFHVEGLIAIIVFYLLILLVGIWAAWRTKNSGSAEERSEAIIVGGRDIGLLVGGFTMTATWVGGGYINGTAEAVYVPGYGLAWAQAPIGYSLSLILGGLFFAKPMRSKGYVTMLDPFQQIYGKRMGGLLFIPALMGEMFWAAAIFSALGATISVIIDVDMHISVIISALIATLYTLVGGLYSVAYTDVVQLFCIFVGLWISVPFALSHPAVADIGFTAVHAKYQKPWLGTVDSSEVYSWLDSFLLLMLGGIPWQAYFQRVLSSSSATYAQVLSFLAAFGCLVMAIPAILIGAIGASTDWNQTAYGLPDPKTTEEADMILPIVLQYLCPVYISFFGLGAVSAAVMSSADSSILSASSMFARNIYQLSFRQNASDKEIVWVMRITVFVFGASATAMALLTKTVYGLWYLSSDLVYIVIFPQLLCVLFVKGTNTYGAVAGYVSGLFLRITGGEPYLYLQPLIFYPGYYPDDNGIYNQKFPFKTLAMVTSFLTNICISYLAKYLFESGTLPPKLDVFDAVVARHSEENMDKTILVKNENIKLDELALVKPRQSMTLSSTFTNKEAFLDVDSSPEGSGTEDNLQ
Description: CHT inhibitors, dose response, cell-based, 5-point CRC, membrane potential dye (AID 504840). It counts as functional.

Test [10] can be described thus: inhibitors of intracellular T. cruzi replication, confirmation, NIH3T3 host cells, beta-gal luminescence (AID 2044).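 Also: intracellular parasites grown in NIH/3T3 mouse fibroblasts as host cells; luminescent beta-galactosidase reporter signal from transgenic T. cruzi replicating inside host cells; inhibitors lower the luminescence signal.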 It counts as functional, cell-based.
Test [11] can be described thus: cytotoxicity toward NIH3T3 fibroblasts, dose response, counter-screen, cell-based, ATP luminescence, mouse fibroblasts (AID 2010).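 Also: cells exposed to compound for about 90 hours before reading.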 Format: functional. On the technique in general: A counterscreen serves to expose hits that act by an unwanted route or on another target.
Test [12] has as its target T5, Short transient receptor potential channel 4 (Mus musculus, UniProt Q9QUQ5).
T5 sequence (Q9QUQ5 whole entry): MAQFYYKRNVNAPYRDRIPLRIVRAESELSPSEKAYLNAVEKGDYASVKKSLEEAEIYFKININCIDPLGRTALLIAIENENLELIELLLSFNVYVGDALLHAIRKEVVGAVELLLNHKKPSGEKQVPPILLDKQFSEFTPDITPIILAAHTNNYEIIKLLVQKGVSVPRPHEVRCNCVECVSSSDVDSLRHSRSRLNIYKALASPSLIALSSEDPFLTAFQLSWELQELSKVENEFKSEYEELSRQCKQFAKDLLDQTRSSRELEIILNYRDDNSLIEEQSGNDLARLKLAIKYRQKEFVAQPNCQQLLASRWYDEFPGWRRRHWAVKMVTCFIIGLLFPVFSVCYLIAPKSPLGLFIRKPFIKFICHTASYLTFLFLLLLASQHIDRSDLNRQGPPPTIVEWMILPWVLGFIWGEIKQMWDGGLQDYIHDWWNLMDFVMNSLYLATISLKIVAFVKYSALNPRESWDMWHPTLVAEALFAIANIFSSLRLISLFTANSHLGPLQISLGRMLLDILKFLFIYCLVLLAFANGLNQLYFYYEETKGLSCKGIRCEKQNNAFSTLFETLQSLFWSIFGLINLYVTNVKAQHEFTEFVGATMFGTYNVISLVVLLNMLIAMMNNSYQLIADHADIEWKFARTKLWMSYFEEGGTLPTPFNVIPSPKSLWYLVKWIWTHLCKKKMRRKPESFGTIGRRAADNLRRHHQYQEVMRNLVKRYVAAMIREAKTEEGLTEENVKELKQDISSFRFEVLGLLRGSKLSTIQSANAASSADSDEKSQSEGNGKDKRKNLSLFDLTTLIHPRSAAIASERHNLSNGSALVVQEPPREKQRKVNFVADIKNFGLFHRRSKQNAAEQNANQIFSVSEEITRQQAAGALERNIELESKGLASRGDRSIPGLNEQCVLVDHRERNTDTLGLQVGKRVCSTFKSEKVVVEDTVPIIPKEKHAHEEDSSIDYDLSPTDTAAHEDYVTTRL
The test is described as follows: mouse TRPC4 channel inhibitors, dose response, cell-based, HEK293 TRPC4/mu-opioid, Fluo-4 calcium (AID 434942).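 Also: potency of inhibitors blocking the TRPC4 calcium response.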 It counts as functional.

Test [13] is described as follows: cells.
Test [14] concerns Escherichia coli. Description: microbe, parasite or virus in culture.
In test [15] the target is T5, Short transient receptor potential channel 4. Description: mouse TRPC4 channel activators, dose response, cell-based, HEK293 TRPC4/mu-opioid, Fluo-4 calcium (AID 434937). It counts as functional.
Test [16] is described as follows: growth suppression of PTEN-null colon cells, dose response, cell-based, HCT116 PTEN knockout (AID 1047).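 Also: HCT116 colon tumor cells with PTEN knocked out; cells exposed to compound for 60 hours before readout; potency for loss of cell viability measured by luminescence.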 It counts as functional.
Test [17] is described as follows: growth suppression of beta-catenin-knockout colon cells, dose response, cell-based, HCT116, human colon tumor (AID 1045).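 Also: HCT116 colon tumor cells with beta catenin knocked out; cells exposed to compound for 60 hours.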 Format: functional.
The target of test [18] is Voltage-dependent T-type calcium channel subunit alpha-1H (Homo sapiens, UniProt O95180). It counts as functional.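 Also: channel activity triggered by adding a high calcium stimulation buffer.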
A short description of test [19]: cytotoxicity in HPDE-C7 cells, cell-based, fluorescence, HTS (AID 430). It counts as functional. Conditions: Homo sapiens.
Test [20] can be described thus: cytotoxicity in KRAS-transformed pancreatic duct cells, primary screen, cell-based, fluorescence, HTS (AID 431).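 Also: cell line used: HPDE-C7K.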 Conditions: Homo sapiens. Format: functional.
Test [21] deals with Large T antigen (Simian virus 40, UniProt P03070). Format: functional, Betapolyomavirus macacae.
Sequence of Large T antigen (P03070 whole entry): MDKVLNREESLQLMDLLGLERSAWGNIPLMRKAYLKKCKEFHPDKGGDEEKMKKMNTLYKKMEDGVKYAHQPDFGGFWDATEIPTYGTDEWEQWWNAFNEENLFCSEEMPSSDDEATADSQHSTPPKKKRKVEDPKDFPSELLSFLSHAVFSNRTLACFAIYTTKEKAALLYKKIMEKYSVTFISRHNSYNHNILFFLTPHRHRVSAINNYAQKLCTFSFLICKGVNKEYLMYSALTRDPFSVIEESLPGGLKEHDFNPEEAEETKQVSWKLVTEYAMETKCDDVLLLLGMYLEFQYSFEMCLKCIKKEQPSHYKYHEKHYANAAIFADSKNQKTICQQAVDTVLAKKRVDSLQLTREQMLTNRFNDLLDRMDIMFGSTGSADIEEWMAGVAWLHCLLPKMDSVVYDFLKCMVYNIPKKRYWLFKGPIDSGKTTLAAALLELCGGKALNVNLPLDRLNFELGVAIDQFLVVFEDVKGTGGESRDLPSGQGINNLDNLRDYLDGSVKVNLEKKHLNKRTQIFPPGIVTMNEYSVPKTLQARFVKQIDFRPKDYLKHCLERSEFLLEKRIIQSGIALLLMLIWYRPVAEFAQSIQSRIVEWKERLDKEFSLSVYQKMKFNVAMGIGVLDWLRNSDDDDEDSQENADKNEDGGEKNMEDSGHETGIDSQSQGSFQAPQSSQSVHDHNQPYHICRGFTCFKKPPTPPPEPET

Sequence of DNA dC->dU-editing enzyme APOBEC-3A (P31941 whole entry): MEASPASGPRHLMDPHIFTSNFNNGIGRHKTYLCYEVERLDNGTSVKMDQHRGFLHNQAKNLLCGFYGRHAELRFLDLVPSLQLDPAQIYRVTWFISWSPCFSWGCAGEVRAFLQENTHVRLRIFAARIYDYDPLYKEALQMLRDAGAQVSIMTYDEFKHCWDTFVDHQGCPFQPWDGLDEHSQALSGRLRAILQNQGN
T2 sequence (Q92731 whole entry): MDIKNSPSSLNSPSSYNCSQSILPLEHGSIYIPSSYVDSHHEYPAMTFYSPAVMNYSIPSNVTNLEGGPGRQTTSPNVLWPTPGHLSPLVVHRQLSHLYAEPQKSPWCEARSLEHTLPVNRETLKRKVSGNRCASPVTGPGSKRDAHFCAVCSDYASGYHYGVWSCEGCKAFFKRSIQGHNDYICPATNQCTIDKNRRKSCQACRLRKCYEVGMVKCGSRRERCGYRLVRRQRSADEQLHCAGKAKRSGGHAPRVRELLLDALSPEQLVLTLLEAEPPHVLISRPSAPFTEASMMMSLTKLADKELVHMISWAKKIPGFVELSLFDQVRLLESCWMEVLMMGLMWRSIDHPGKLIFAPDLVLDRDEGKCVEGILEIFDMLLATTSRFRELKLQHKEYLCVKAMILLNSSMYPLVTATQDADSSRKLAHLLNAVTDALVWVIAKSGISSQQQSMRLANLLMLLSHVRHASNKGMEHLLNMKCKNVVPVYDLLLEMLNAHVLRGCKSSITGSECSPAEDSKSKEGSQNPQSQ
Sequence of DNA dC->dU-editing enzyme APOBEC-3G (Q9HC16 whole entry): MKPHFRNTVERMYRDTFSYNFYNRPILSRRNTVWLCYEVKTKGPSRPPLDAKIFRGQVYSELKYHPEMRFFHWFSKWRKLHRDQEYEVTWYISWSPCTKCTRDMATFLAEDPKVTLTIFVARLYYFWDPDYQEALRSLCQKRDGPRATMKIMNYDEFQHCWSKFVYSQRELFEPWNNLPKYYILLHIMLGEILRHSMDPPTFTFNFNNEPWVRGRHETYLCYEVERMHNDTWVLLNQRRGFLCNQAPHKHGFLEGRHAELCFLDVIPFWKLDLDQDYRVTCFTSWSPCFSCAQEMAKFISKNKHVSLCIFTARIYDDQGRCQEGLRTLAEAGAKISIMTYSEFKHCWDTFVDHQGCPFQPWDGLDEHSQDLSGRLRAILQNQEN
Sequence of FAD-linked sulfhydryl oxidase ALR (P55789 whole entry): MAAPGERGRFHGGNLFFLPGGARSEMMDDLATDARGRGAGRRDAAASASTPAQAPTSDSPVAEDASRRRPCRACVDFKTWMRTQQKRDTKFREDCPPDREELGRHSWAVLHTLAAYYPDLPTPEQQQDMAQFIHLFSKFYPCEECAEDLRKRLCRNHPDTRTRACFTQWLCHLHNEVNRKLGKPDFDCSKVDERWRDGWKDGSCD
Sequence of Voltage-dependent T-type calcium channel subunit alpha-1H (O95180 whole entry): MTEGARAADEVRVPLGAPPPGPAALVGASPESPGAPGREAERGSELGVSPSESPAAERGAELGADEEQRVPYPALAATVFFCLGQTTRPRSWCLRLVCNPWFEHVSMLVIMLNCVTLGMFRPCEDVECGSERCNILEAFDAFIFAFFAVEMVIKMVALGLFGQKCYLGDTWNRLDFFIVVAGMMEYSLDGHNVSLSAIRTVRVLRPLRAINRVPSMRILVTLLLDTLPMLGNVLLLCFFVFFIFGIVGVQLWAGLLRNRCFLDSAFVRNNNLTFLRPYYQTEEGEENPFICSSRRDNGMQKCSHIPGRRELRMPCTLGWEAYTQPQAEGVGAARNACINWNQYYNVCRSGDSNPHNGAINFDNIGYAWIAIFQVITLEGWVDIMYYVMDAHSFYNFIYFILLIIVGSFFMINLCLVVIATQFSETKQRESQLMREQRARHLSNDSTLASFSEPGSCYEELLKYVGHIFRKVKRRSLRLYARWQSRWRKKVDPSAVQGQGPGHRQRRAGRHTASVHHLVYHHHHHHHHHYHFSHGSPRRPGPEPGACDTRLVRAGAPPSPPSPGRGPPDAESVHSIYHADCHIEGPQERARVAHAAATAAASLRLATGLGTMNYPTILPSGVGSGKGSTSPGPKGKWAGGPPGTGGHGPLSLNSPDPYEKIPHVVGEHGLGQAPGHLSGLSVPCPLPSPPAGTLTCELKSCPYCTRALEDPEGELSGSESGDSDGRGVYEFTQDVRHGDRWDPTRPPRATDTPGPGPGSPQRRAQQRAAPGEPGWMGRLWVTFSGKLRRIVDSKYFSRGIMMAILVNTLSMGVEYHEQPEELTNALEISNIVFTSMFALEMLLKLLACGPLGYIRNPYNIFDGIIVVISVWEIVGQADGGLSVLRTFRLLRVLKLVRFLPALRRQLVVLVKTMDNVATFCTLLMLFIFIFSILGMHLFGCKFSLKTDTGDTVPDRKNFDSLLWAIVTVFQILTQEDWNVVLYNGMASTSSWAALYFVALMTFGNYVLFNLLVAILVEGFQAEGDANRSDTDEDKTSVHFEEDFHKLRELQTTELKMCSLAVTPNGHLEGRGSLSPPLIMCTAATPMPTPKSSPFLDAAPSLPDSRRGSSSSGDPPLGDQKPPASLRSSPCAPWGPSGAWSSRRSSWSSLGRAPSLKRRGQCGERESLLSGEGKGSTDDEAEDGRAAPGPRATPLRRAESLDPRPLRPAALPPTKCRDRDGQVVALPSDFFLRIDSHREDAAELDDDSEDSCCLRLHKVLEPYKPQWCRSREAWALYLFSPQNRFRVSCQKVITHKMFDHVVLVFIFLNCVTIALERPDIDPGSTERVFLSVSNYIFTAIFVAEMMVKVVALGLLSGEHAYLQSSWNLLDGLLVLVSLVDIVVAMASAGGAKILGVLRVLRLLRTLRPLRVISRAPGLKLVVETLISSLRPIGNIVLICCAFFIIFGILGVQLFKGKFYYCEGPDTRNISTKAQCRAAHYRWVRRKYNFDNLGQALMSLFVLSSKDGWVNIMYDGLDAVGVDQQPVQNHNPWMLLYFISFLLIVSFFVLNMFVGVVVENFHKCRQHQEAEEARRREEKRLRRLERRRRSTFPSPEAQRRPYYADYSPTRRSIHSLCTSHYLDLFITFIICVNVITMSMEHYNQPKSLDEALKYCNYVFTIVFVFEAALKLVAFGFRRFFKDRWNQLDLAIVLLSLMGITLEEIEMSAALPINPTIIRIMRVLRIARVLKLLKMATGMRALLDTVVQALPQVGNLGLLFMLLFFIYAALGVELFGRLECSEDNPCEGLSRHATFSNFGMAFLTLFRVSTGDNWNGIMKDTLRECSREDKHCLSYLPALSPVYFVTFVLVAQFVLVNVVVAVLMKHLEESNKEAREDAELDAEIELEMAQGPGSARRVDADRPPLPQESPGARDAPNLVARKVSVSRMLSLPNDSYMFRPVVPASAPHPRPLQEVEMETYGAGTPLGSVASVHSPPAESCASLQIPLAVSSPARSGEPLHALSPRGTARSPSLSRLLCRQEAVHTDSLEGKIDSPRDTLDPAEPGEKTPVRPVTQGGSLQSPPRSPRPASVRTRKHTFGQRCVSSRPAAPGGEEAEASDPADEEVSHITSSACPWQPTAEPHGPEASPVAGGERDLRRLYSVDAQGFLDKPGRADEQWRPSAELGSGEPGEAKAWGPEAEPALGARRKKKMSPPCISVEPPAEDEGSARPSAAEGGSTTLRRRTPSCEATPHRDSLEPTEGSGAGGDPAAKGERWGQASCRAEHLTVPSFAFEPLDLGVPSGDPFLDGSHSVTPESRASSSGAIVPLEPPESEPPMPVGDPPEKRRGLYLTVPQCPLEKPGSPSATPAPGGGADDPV

As for `COc1ccc(NC2=NC(=O)S/C2=C\c2ccc(N(C)C)cc2)cc1`, the figures for the IC50 in test [1], in [2] and in test [3] were 33.3 µM (not active), 12.7 µM (active) and 85.5 µM (not active), respectively. The EC50 in [4] is 2.02 µM (active).
On to `O=C(/C=C/c1cccs1)c1cc(Cl)ccc1O`, for which, in test [5], the AC50 was 4.67 µM (active).
In the case of `Cn1c(S)nnc1-c1sc2ccccc2c1Cl`, the IC50 was > 100 µM (inactive) in [6], 0.936 µM (active) in test [7] and 8.32 µM (active) in test [9]. For the same molecule, the AC50 in test [8] is 12 µM (active).
Consider `O=[N+]([O-])c1ccc(CN2CCN(Cc3c[nH]c4ccccc34)CC2)cc1`, for which the EC50 is < 0.1 µM (active) in test [10], > 60 µM (not active) in test [11], 5.96 µM (active) in test [12] and 0.249 µM (active) in test [13].
With `COc1ccc2c(c1)c(C(O)CN1CCC(Cc3ccccc3)CC1)c(C)n2C` (stereo not given), the AC50 in test [14] was 73.6 µM (active).
On to `O=C(Cn1cnc2c(cnn2-c2ccccc2)c1=O)Nc1ccc(S(=O)(=O)N2CCOCC2)cc1`, for which the EC50 in test [4] is > 71.5 µM (inactive).
For `O=[N+]([O-])c1ccc(N2CCCC2)nc1`, the AC50 in test [5] was 5.4 µM (active).
As for `COc1c(C)cc(C(=O)C2CCCN(Cc3cccc4nccnc34)C2)cc1C` (stereo not given), the EC50 in [15] is 3.35 µM (active).
As to `COc1ccc2[nH]c(SCCN(C)C)nc2c1`, the EC50 in test [15] is 0.149 µM (active).
On to `Cn1cccc1C(C#N)c1cccc(F)c1C#N` (stereo not given), for which, in test [5], the AC50 was 4.57 µM (active).
Take `N=c1n(Cc2ccccc2)c2ccccc2n1CC(O)COc1ccccc1` (stereo not given): the EC50 in test [16] is 9.02 µM (active); in [17] it was 6.96 µM (active); in test [18] it was 2.6 µM (active); in [15] it was 0.267 µM (active). Further, in test [9], the concentration for half-maximal inhibition (IC50) was 9.78 µM (active).
`Oc1ccc(Br)cc1-c1nc2cnccn2c1NC1CCCC1`: the EC50 is 17.3 µM (active) in test [19], 12.5 µM (active) in [20], 38.9 µM (active) in [16] and 36.4 µM (active) in test [17]. Moreover, in test [8], the AC50 was 1.55 µM (active).
As for `Fc1cccc(C2NCCc3[nH]cnc32)c1` (stereo not given), the EC50 in [15] was 3.76 µM (active).
With `CCCNS(=O)(=O)c1ccc(OC)c(Cl)c1Cl`, the AC50 in test [5] was 8.91 µM (active).
Take `O=C(c1cnc2ccccc2n1)N1CCN(c2ccc(C(F)(F)F)cn2)CC1`: in test [4], the EC50 was > 71.4 µM (inactive).
On to `Cc1c(NC(=O)CSc2nnc(C(C)Oc3ccc(Cl)cc3)n2-c2ccccc2)c(=O)n(-c2ccccc2)n1C` (stereo not given), for which the concentration for half-maximal inhibition (IC50) in test [9] was 13.8 µM (active).
Take `CCc1c(C)nc(SCC(=O)CC(=O)OC(C)C)c(C#N)c1C`: the EC50 in test [19] is 7.84 µM (active); in [20], 10.7 µM (active).
Turning to `C=CCc1ccc(OCC(O)CN2CCC(Cc3ccccc3)CC2)c(OC)c1` (stereo not given), the EC50 in [18] is 6.13 µM (active). Besides, in test [9], the IC50 is 19.1 µM (active).
In the case of `O=c1c2c3c(sc2n2c(S)nnc2n1-c1ccccc1)CCC3`, the IC50 in test [21] was 30.4 µM (active); in test [6], > 100 µM (inactive); in [7] it was 3.72 µM (active).
